Source: ChEMBL document CHEMBL1201862, “PubChem BioAssay data set” (2004)
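Dose response: 5 concentrations. Exposure: 48 h. Format: 96-well plates. Endpoint: linear interpolation; highest concentration if not reached. GI50 is the concentration that inhibits growth by half.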 Activity calls are given as the source filed them. Cut-off read from the data, not from the text of the source: active = GI50 up to about 1.1 µM and inactive = higher.

Tests used:
Test in all cases: NCI-60 cell line screen, 48 h
RPMI-8226 = tested on: RPMI-8226
MOLT-4 = tested on: MOLT-4
OVCAR-3 = tested on: OVCAR-3
SNB-75 = tested on: SNB-75
HL-60 = tested on: HL-60
LOX IMVI = tested on: LOX IMVI
ACHN = tested on: ACHN
Malme-3M = tested on: Malme-3M
NCI-H23 = tested on: NCI-H23
UACC-62 = tested on: UACC-62
HT-29 = tested on: HT-29
DMS-114 = tested on: DMS-114
HCT-116 = tested on: HCT-116
HOP-62 = tested on: HOP-62
RXF 393 = tested on: RXF 393
U-251 = tested on: U-251

Measured: GI50

Cn1cc(C(=O)C[n+]2ccccc2)c2ccccc21
inactive: RPMI-8226 > 100 µM | MOLT-4 54.7 µM | OVCAR-3 20.9 µM | SNB-75 69.2 µM | HL-60 > 100 µM | LOX IMVI > 100 µM | ACHN > 100 µM | Malme-3M 69.7 µM | NCI-H23 > 100 µM | UACC-62 > 100 µM | HT-29 48.5 µM | DMS-114 49.7 µM | HCT-116 > 100 µM | HOP-62 83.8 µM

N#C[C@]12CC3(CC[C@H]1CC1(C2)OCCO1)OCCO3
inactive: RPMI-8226 > 100 µM | RXF 393 > 100 µM | MOLT-4 > 100 µM | OVCAR-3 > 100 µM | SNB-75 > 100 µM | HL-60 > 100 µM | ACHN > 100 µM | Malme-3M > 100 µM | UACC-62 > 100 µM | U-251 > 100 µM | DMS-114 > 100 µM | HCT-116 > 100 µM | HOP-62 > 100 µM

COc1ccc2nc3cc(Cl)ccc3c(SCC(=O)Nc3ccccc3-c3ccccc3NC(=O)CSc3c4ccc(Cl)cc4nc4ccc(OC)cc34)c2c1
inactive: RPMI-8226 > 100 µM | RXF 393 > 100 µM | MOLT-4 > 100 µM | OVCAR-3 > 100 µM | SNB-75 > 100 µM | LOX IMVI > 100 µM | ACHN > 100 µM | Malme-3M > 100 µM | NCI-H23 > 100 µM | UACC-62 > 100 µM | HT-29 > 100 µM | U-251 > 100 µM | DMS-114 > 100 µM | HCT-116 > 100 µM | HOP-62 > 100 µM

[O-][Cl+3]([O-])([O-])O.c1ccc(/N=c2\snc(-c3ccccc3)s2)cc1
inactive: RPMI-8226 > 100 µM | RXF 393 > 100 µM | MOLT-4 > 100 µM | SNB-75 > 100 µM | HL-60 > 100 µM | ACHN > 100 µM | Malme-3M > 100 µM | UACC-62 > 100 µM | U-251 > 100 µM | DMS-114 > 100 µM | HCT-116 > 100 µM | HOP-62 > 100 µM

N#CN1CC[C@@H]2CC3(CCC2C1)OCCO3 (some centres undefined)
inactive: RPMI-8226 > 100 µM | RXF 393 > 100 µM | MOLT-4 > 100 µM | OVCAR-3 > 100 µM | SNB-75 > 100 µM | HL-60 > 100 µM | ACHN > 100 µM | Malme-3M > 100 µM | NCI-H23 > 100 µM | UACC-62 > 100 µM | HT-29 > 100 µM | U-251 > 100 µM | DMS-114 > 100 µM | HCT-116 > 100 µM | HOP-62 > 100 µM
